Like-named read-outs stand apart in the source and are kept apart here.
What was measured:
[1] = tested on: bemisia tabaci gennadius
[2] = tested on: myzus persicae
[3] = tested on: Helicoverpa armigera
[4] = tested on: asparagus caterpillar

In the case of CCCNC(=N[N+](=O)[O-])NN=Cc1ccc(OC)cc1 [Compound 130], the “mortality(%) bemisia tabaci gennadius (500 μg/mL)” value ([1]; in vivo) is reported as 18.46%.
CCNC(=N[N+](=O)[O-])NN=Cc1ccc(OCC)c(OC)c1 [Compound 126] was tested, and the “mortality(%) bemisia tabaci gennadius (500 μg/mL)” value ([1]; in vivo) was 6.67%.
CNC(=N[N+](=O)[O-])NN=Cc1ccc(F)cc1 [Compound 123] was tested, and the “mortality(%) bemisia tabaci gennadius (500 μg/mL)” value ([1]; in vivo) was 4.69%.
O=[N+]([O-])N=C(NCc1ccc(Cl)nc1)NN=Cc1ccccc1 [Compound 110] was tested, and the “mortality(%) myzus persicae (600 μg/mL)” value ([2]; 600 μg/mL) was 92.8%, the “mortality(%) bemisia tabaci gennadius (500 μg/mL)” value ([1]; 500 μg/mL, 48 hours) was 6.67% and the “mortality(%) Helicoverpa armigera (500 μg/mL)” value ([3]; 500 μg/mL, 48 hours) was 0%. The “mortality(%) asparagus caterpillar (500 μg/mL)” value ([4]; 500 μg/mL, 48 hours) was 30%.
For O=[N+]([O-])N=C(NCc1ccccc1)NN=Cc1ccc(F)cc1 [Compound 133], the “mortality(%) bemisia tabaci gennadius (500 μg/mL)” value ([1]; in vivo) was 3.77%.
In the case of CCNC(=N[N+](=O)[O-])NN=Cc1ccc(F)cc1 [Compound 129], the “mortality(%) bemisia tabaci gennadius (500 μg/mL)” value ([1]; in vivo) is reported as 8.62%.
For CNC(=N[N+](=O)[O-])NN=Cc1ccccc1Cl [Compound 117], the “mortality(%) bemisia tabaci gennadius (500 μg/mL)” value ([1]; in vivo) was 17.78%.
For C=CC=NNC(=N[N+](=O)[O-])NCCCC [Compound 41], the “mortality(%) myzus persicae (600 μg/mL)” value ([2]; in vivo) was 74.7%, the “mortality(%) Helicoverpa armigera (500 μg/mL)” value ([3]; 500 μg/mL, 48 hours) was 20% and the “mortality(%) asparagus caterpillar (500 μg/mL)” value ([4]; in vivo) was 10%.
With CCCNC(=N[N+](=O)[O-])NN=Cc1ccccc1Cl [Compound 90] the “mortality(%) myzus persicae (600 μg/mL)” value ([2]; in vivo) was 41.2%, the “mortality(%) Helicoverpa armigera (500 μg/mL)” value ([3]; in vivo) was 10% and the “mortality(%) asparagus caterpillar (500 μg/mL)” value ([4]; in vivo) was 50%.
For CCC=NNC(=N[N+](=O)[O-])NCC [Compound 9], the “mortality(%) myzus persicae (600 μg/mL)” value ([2]; in vivo) was 54.2%, the “mortality(%) Helicoverpa armigera (500 μg/mL)” value ([3]; 500 μg/mL, 48 hours) was 60% and the “mortality(%) asparagus caterpillar (500 μg/mL)” value ([4]; in vivo) was 20%.
CCOc1ccc(C=NNC(=N[N+](=O)[O-])NC)cc1OC [Compound 95] was tested, and the “mortality(%) myzus persicae (600 μg/mL)” value ([2]; in vivo) was 58.0%, the “mortality(%) Helicoverpa armigera (500 μg/mL)” value ([3]; in vivo) was 40% and the “mortality(%) asparagus caterpillar (500 μg/mL)” value ([4]; in vivo) was 80%.
In the case of Cc1ccc(C=NNC(=N[N+](=O)[O-])NCc2ccc(Cl)nc2)cc1 [Compound 107], the “mortality(%) myzus persicae (600 μg/mL)” value ([2]; 600 μg/mL) is reported as 3.7%, the “mortality(%) Helicoverpa armigera (500 μg/mL)” value ([3]; 500 μg/mL, 48 hours) is reported as 10% and the “mortality(%) asparagus caterpillar (500 μg/mL)” value ([4]; 500 μg/mL, 48 hours) is reported as 20%.
With CCOc1ccc(C=NNC(=N[N+](=O)[O-])NCc2ccc(Cl)nc2)cc1OC [Compound 134] the “mortality(%) bemisia tabaci gennadius (500 μg/mL)” value ([1]; in vivo) was 1.82%.
C#CCNC(=N[N+](=O)[O-])NN=CC=CC [Compound 36] was tested, and the “mortality(%) myzus persicae (600 μg/mL)” value ([2]; in vivo) was 35.0%, the “mortality(%) Helicoverpa armigera (500 μg/mL)” value ([3]; 500 μg/mL, 48 hours) was 30% and the “mortality(%) asparagus caterpillar (500 μg/mL)” value ([4]; in vivo) was 50%.
For CCNC(=N[N+](=O)[O-])NN=Cc1ccccc1Cl [Compound 125], the “mortality(%) bemisia tabaci gennadius (500 μg/mL)” value ([1]; in vivo) was 53.06%.
For CCC=NNC(=N[N+](=O)[O-])NCc1ccccc1 [Compound 14], the “mortality(%) myzus persicae (600 μg/mL)” value ([2]; in vivo) was 18.8%, the “mortality(%) Helicoverpa armigera (500 μg/mL)” value ([3]; 500 μg/mL, 48 hours) was 40% and the “mortality(%) asparagus caterpillar (500 μg/mL)” value ([4]; in vivo) was 30%.
In the case of CC=CC=NNC(=N[N+](=O)[O-])NCCC [Compound 33], the “mortality(%) myzus persicae (600 μg/mL)” value ([2]; in vivo) is reported as 19.5%, the “mortality(%) Helicoverpa armigera (500 μg/mL)” value ([3]; 500 μg/mL, 48 hours) is reported as 70% and the “mortality(%) asparagus caterpillar (500 μg/mL)” value ([4]; in vivo) is reported as 70%.
In the case of C=CCNC(=N[N+](=O)[O-])NN=Cc1ccc(F)cc1 [Compound 101], the “mortality(%) myzus persicae (600 μg/mL)” value ([2]; in vivo) is reported as 17.7%, the “mortality(%) Helicoverpa armigera (500 μg/mL)” value ([3]; in vivo) is reported as 40% and the “mortality(%) asparagus caterpillar (500 μg/mL)” value ([4]; in vivo) is reported as 30%.
With CCCCCCC=NNC(=N[N+](=O)[O-])NCCC [Compound 45] the “mortality(%) myzus persicae (600 μg/mL)” value ([2]; in vivo) was 16.9%, the “mortality(%) Helicoverpa armigera (500 μg/mL)” value ([3]; 500 μg/mL, 48 hours) was 20% and the “mortality(%) asparagus caterpillar (500 μg/mL)” value ([4]; in vivo) was 20%.
For C#CCNC(=N[N+](=O)[O-])NN=CCCC [Compound 28], the “mortality(%) myzus persicae (600 μg/mL)” value ([2]; in vivo) was 11.4%, the “mortality(%) Helicoverpa armigera (500 μg/mL)” value ([3]; 500 μg/mL, 48 hours) was 60% and the “mortality(%) asparagus caterpillar (500 μg/mL)” value ([4]; in vivo) was 70%.
With CCCCC=NNC(=N[N+](=O)[O-])NCCCC [Compound 52] the “mortality(%) myzus persicae (600 μg/mL)” value ([2]; in vivo) was 81.0%, the “mortality(%) Helicoverpa armigera (500 μg/mL)” value ([3]; 500 μg/mL, 48 hours) was 20% and the “mortality(%) asparagus caterpillar (500 μg/mL)” value ([4]; in vivo) was 60%.
O=[N+]([O-])N=C(NCc1ccccc1)NN=Cc1ccccc1Cl [Compound 92] was tested, and the “mortality(%) myzus persicae (600 μg/mL)” value ([2]; in vivo) was 45.8%, the “mortality(%) Helicoverpa armigera (500 μg/mL)” value ([3]; in vivo) was 50% and the “mortality(%) asparagus caterpillar (500 μg/mL)” value ([4]; in vivo) was 70%.
In the case of CNC(=N[N+](=O)[O-])NN=Cc1ccco1 [Compound 124], the “mortality(%) bemisia tabaci gennadius (500 μg/mL)” value ([1]; in vivo) is reported as 88.68%.
For C#CCNC(=N[N+](=O)[O-])NN=CCC [Compound 13], the “mortality(%) myzus persicae (600 μg/mL)” value ([2]; in vivo) was 5.0%, the “mortality(%) Helicoverpa armigera (500 μg/mL)” value ([3]; 500 μg/mL, 48 hours) was 50% and the “mortality(%) asparagus caterpillar (500 μg/mL)” value ([4]; in vivo) was 0%.
With C#CCNC(=N[N+](=O)[O-])NN=CCCCC [Compound 54] the “mortality(%) myzus persicae (600 μg/mL)” value ([2]; in vivo) was 47.6%, the “mortality(%) Helicoverpa armigera (500 μg/mL)” value ([3]; 500 μg/mL, 48 hours) was 40% and the “mortality(%) asparagus caterpillar (500 μg/mL)” value ([4]; in vivo) was 10%.
For CC(C)=CCCC(C)=CC=NNC(=N[N+](=O)[O-])NCc1ccccc1 [Compound 22], the “mortality(%) myzus persicae (600 μg/mL)” value ([2]; in vivo) was 7.1%, the “mortality(%) Helicoverpa armigera (500 μg/mL)” value ([3]; in vivo) was 20% and the “mortality(%) asparagus caterpillar (500 μg/mL)” value ([4]; in vivo) was 20%.
For CNC(=N[N+](=O)[O-])NN=Cc1ccc(OC)cc1 [Compound 121], the “mortality(%) bemisia tabaci gennadius (500 μg/mL)” value ([1]; in vivo) was 16.95%.
